Where a SMILES comes first, the peptide text is derived from it.
Columns and labels:
Conditions in all cases: 10°C
[1] = biological target: T1, N-SH2 domain of PI3K, WT (Homo sapiens, UniProt P27986); assay: Stopped-flow binding kinetics, N-SH2 WT
T1 construct: made in house
Method: (§1) N-SH2 wild-type and all the site-directed variants were expressed and purified as described previously ([Visconti et al., 2019]). All the mutants were obtained using a QuickChange Lightning Site-Directed Mutagenesis kit (Agilent technologies), accordingly to manufacturer instructions. Peptides with sequence TNSEDNpYVPMNPG mimicking wild-type Gab2 and TNSEDNpYVPANPG mimicking the M457A variant of Gab2 were purchased from GenScript Biotech Corporation.
(§2) Binding kinetics experiments were performed using a single-mixing SX-18 stopped-flow instrument (Applied Photophysics); all binding experiments were conducted in 50 mM Hepes pH 7.4 300 mM NaCl at 10°C. Excitation was at 280 nm and emission was collected using a […] cut-off glass filter. Pseudo-first order binding experiments were performed mixing a constant concentration of dansylated Gab2_448–460 and Gab2_448–460 M457A (1 μM) vs. N-SH2 wt and its mutants at concentrations ranging from […]. For each N-SH2 concentration, usually 5 individual traces were averaged and in all cases the fluorescence time courses obtained was satisfactorily fitted by using a single exponential equation.
(§3) One of the aims of this study is to depict the molecular details of the interaction between the N-SH2 domain of PI3K and Gab2. A powerful strategy to achieve this goal relies on perturbing the system by producing conservative site-directed variants while monitoring the effect of mutations on the association and dissociation rate constants between the interacting partners (kon and koff respectively). Thus, we designed and successfully produced 21 site-directed variants of the N-SH2 domain and challenged them vs. a peptide mimicking the region of Gab2 ranging from residue 448–460 (Gab2_448–460), containing the pY-X-X-M motif that is specifically recognized by the N-SH2 domain ([Waksman et al., 1992]; [Songyang et al., 1993]). The choise of mutations was designed in analogy to phi-value analysis methodology in protein folding studies ([Fersht and Sato, 2004]). […] To monitor binding by fluorescence, a dansyl group was added at the N-terminus of the peptide. The binding reaction was monitored by stopped-flow experiments following the change in FRET signal, taking advantage of the two Trp residues on the N-SH2 domain in positions 12 and 14 as fluorescence donor and the dansyl group on Gab2_448–460 as acceptor. The experiments were performed in pseudo-first order conditions with Gab2_448–460 at fixed concentration of 1 μM rapidly mixed vs. large excess of N-SH2 wt and its variants, ranging from 4 to 14 μM, in buffer Hepes 50 mM, NaCl 300 mM, pH 7.4, at 10°C.
(§4) with kon being the slope of the line and koff the intercept with the y-axis. Since indirect calculation of koff obtained by extrapolation is associated with high experimental error, we performed displacement experiments to directly measure koff by challenging a pre-incubated complex of dansylated Gab2_448–460 and N-SH2 domain both at the concentration of 1 μM vs. a large excess of non-dansylated Gab2_448–460 (50 μM). Kinetic parameters extracted from data together with the calculated changes in activation and equilibrium free energies are reported in Table 1. Analysis of kinetic data highlights that T48S, L51A, and L59A variations cause a detectable decrease of the affinity of the domain for Gab2_448–460 of ∼10-fold, affecting both the kon and koff. […] Since L99 residue is part of the binding pocket, this dramatic effect on the binding affinity is expected.
(§5) SH2 domains bind ligands with a phosphorylated tyrosine in their sequence. The N-SH2 domain of PI3K is known to recognize a specific consensus sequences that present a methionine in position +3 in respect to the phosphotyrosine (M457 in Gab2). […]

[2] = biological target: T2, N-SH2 domain of PI3K, V22A variant (Homo sapiens, UniProt P27986, V343A); assay: Stopped-flow binding kinetics, N-SH2 V22A
T2 construct: made in house
Method: as §1, §2, §3, §4, §5

[3] = biological target: T3, N-SH2 domain of PI3K, I60V variant (Homo sapiens, UniProt P27986, I381V); assay: Stopped-flow binding kinetics, N-SH2 I60V
T3 construct: made in house
Method: as §1, §2, §3, §4, §5

[4] = biological target: T4, N-SH2 domain of PI3K, L75A variant (Homo sapiens, UniProt P27986, L396A); assay: Stopped-flow binding kinetics, N-SH2 L75A
T4 construct: made in house
Method: as §1, §2, §3, §4, §5

[5] = biological target: T5, N-SH2 domain of PI3K, A30G variant (Homo sapiens, UniProt P27986, A351G); assay: Stopped-flow binding kinetics, N-SH2 A30G
T5 construct: made in house
Method: as §1, §2, §3, §4, §5

[6] = biological target: T6, N-SH2 domain of PI3K, L99A variant (Homo sapiens, UniProt P27986, L420A); assay: Stopped-flow binding kinetics, N-SH2 L99A
T6 construct: made in house
Method: as §1, §2
(§6) One of the aims of this study is to depict the molecular details of the interaction between the N-SH2 domain of PI3K and Gab2. […] To monitor binding by fluorescence, a dansyl group was added at the N-terminus of the peptide. The binding reaction was monitored by stopped-flow experiments following the change in FRET signal, taking advantage of the two Trp residues on the N-SH2 domain in positions 12 and 14 as fluorescence donor and the dansyl group on Gab2_448–460 as acceptor. […]
(§7) with kon being the slope of the line and koff the intercept with the y-axis. […] Kinetic parameters extracted from data together with the calculated changes in activation and equilibrium free energies are reported in Table 1. […]

[7] = biological target: T7, N-SH2 domain of PI3K, T50S variant (Homo sapiens, UniProt P27986, T371S); assay: Stopped-flow binding kinetics, N-SH2 T50S
T7 construct: made in house
Method: as §1, §2, §3, §4, §5

[8] = biological target: T8, N-SH2 domain of PI3K, T76S variant (Homo sapiens, UniProt P27986, T397S); assay: Stopped-flow binding kinetics, N-SH2 T76S
T8 construct: made in house
Method: as §1, §2, §3, §4, §5

[9] = biological target: T9, N-SH2 domain of PI3K, T33S variant (Homo sapiens, UniProt P27986, T354S); assay: Stopped-flow binding kinetics, N-SH2 T33S
T9 construct: made in house
Method: as §1, §2, §3, §4, §5

[10] = biological target: T10, N-SH2 domain of PI3K, L104A variant (Homo sapiens, UniProt P27986, L425A); assay: Stopped-flow binding kinetics, N-SH2 L104A
T10 construct: made in house
Method: as §1, §2, §3, §4, §5

[11] = biological target: T11, N-SH2 domain of PI3K, L59A variant (Homo sapiens, UniProt P27986, L380A); assay: Stopped-flow binding kinetics, N-SH2 L59A
T11 construct: made in house
Method: as §1, §2, §6, §7

[12] = displacement experiment, pH 7.4, 300 mM NaCl
[13] = stopped-flow FRET, 1 μM dansylated peptide, 50 mM Hepes pH 7.4, 300 mM NaCl
[14] = stopped-flow kinetics, pH 7.4, 300 mM NaCl

T5 sequence (P27986 333-428 A351G): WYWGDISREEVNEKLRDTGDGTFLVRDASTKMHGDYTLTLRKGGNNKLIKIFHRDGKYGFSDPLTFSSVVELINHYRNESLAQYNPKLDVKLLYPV
T7 sequence (P27986 333-428 T371S): as the sequence (P27986 333-428 A351G) above, with G19A, T39S counted along it
T11 sequence (P27986 333-428 L380A): as the sequence (P27986 333-428 A351G) above, with G19A, L48A counted along it
T8 sequence (P27986 333-428 T397S): as the sequence (P27986 333-428 A351G) above, with G19A, T65S counted along it
T2 sequence (P27986 333-428 V343A): as the sequence (P27986 333-428 A351G) above, with V11A, G19A counted along it
T10 sequence (P27986 333-428 L425A): as the sequence (P27986 333-428 A351G) above, with G19A, L93A counted along it
T3 sequence (P27986 333-428 I381V): as the sequence (P27986 333-428 A351G) above, with G19A, I49V counted along it
T9 sequence (P27986 333-428 T354S): as the sequence (P27986 333-428 A351G) above, with G19A, T22S counted along it
T4 sequence (P27986 333-428 L396A): as the sequence (P27986 333-428 A351G) above, with G19A, L64A counted along it
T6 sequence (P27986 333-428 L420A): as the sequence (P27986 333-428 A351G) above, with G19A, L88A counted along it
T1 sequence (P27986 333-428 limits assumed): as the sequence (P27986 333-428 A351G) above, with G19A counted along it

## CSCC[C@H](NC(=O)[C@@H]1CCCN1C(=O)[C@@H](NC(=O)[C@H](Cc1ccc(OP(=O)(O)O)cc1)NC(=O)[C@H](CC(N)=O)NC(=O)[C@H](CC(=O)O)NC(=O)[C@H](CCC(=O)O)NC(=O)[C@H](CO)NC(=O)[C@H](CC(N)=O)NC(=O)[C@@H](N)[C@@H](C)O)C(C)C)C(=O)N[C@@H](CC(N)=O)C(=O)N1CCC[C@H]1C(=O)NCC(=O)O [Gab2_448–460] (HELM PEPTIDE1{T.N.S.E.D.N.[O=C([C@H](Cc1ccc(OP(=O)(O)O)cc1)N[*:1])[*:2]].V.P.M.N.P.G}$$$$V2.0)
[1]; from stopped-flow kinetics, pH 7.4, 300 mM NaCl
  Kd: 200 ± 100 nM
[1]; stopped-flow FRET, 1 μM dansylated peptide vs excess N-SH2, 50 mM Hepes pH 7.4, 300 mM NaCl, slope of kobs
  kon: 1.95e+07 ± 1e+06 M⁻¹ s⁻¹
[2]; [12]
  koff: 7.4 ± 0.4 s⁻¹
[2]; [13]
  kon: 1.12e+07 ± 400000 M⁻¹ s⁻¹
[2]; [14]
  Kd: 700 ± 100 nM
[3]; [12]
  koff: 6.9 ± 0.3 s⁻¹
[3]; [13]
  kon: 9.1e+06 ± 1.1e+06 M⁻¹ s⁻¹
[3]; [14]
  Kd: 800 ± 100 nM
[4]; [12]
  koff: 6.1 ± 0.3 s⁻¹
[4]; [13]
  kon: 8.1e+06 ± 1.1e+06 M⁻¹ s⁻¹
[4]; [14]
  Kd: 800 ± 100 nM
[5]; [12]
  koff: 3.7 ± 0.2 s⁻¹
[5]; [13]
  kon: 2.92e+07 ± 2e+06 M⁻¹ s⁻¹
[5]; [14]
  Kd: 100 ± 100 nM
[6]; [12]
  koff: 160 ± 10 s⁻¹
[6]; [13]
  kon: 8.2e+06 ± 1.7e+06 M⁻¹ s⁻¹
[6]; [14]
  Kd: 20000 ± 200 nM
[7]; [12]
  koff: 9.3 ± 0.5 s⁻¹
[7]; [13]
  kon: 1.56e+07 ± 800000 M⁻¹ s⁻¹
[7]; [14]
  Kd: 600 ± 100 nM
[8]; [12]
  koff: 5.3 ± 0.3 s⁻¹
[8]; [13]
  kon: 1.69e+07 ± 1.3e+06 M⁻¹ s⁻¹
[8]; [14]
  Kd: 300 ± 100 nM
[9]; [12]
  koff: 3.6 ± 0.2 s⁻¹
[9]; [13]
  kon: 2.26e+07 ± 2.4e+06 M⁻¹ s⁻¹
[9]; [14]
  Kd: 200 ± 100 nM
[10]; [12]
  koff: 3.5 ± 0.2 s⁻¹
[10]; [13]
  kon: 1.65e+07 ± 200000 M⁻¹ s⁻¹
[10]; [14]
  Kd: 200 ± 100 nM
[11]; [12]
  koff: 21 ± 1 s⁻¹
[11]; [13]
  kon: 6.7e+06 ± 1e+06 M⁻¹ s⁻¹
[11]; [14]
  Kd: 3200 ± 200 nM
